{"source": "patent US20250295662A1", "about": "“USE OF CDK4/6 INHIBITOR IN TREATMENT OF DEDIFFERENTIATED LIPOSARCOMA” (priority 2022, published 2025)", "key": {"[1]": {"tested_on": "dedifferentiated liposarcoma", "experiment": "Clinical trial in dedifferentiated liposarcoma: efficacy (RECIST 1.1)", "assay_type": "in vivo, human", "conditions": "180 mg oral once daily", "source_text": "(§1) In this study, a randomized, double-blind, placebo-controlled parallel trial design or a single arm trial design was employed. For the parallel control trial, after all patients signed the informed consent, subjects eligible for enrollment by screening were randomized (1:1) into two groups, i.e., a test group given the capsule of the compound of formula I and a control group given the placebo of the capsule of the compound of formula I, with 4 weeks (28 days) being 1 cycle; for the single arm trial, the administration regimen was the same as that for the test group of the parallel control trial. The efficacy and safety of the capsule of the compound of formula I in the treatment of dedifferentiated liposarcoma was evaluated by the clinical trials of the present disclosure.\n(§2) Hemoglobin (HGB) ≥90.0 g/L; • b. Absolute neutrophil count (ANC) ≥1.5×10^9/L; • c. Platelet count (PLT) ≥90×10^9/L; • 2) Biochemical examination criteria: • a. Total bilirubin (TBIL) ≤1.5×upper limit of normal ULN; for patients with Gilbert syndrome, ≤3×ULN; • b. Alanine aminotransferase (ALT) and aspartate aminotransferase (AST) ≤3×ULN. If liver metastasis is accompanied, ALT and AST ≤5×ULN; • c.\n(§3) Capsules of the compound of formula (I): strength: 50 mg or 60 mg, provided by Chia Tai Tianqing Pharmaceutical Group Co., Ltd.\n(§4) Capsules of the compound of formula (I): 180 mg/each administration (based on the compound of formula (I)), oral administration at fasting, once daily, and 28 consecutive days of administration as one treatment cycle. Placebo of the capsule of the compound of formula (I): 0 mg/each administration (based on the compound of formula (I)), oral administration at fasting, once daily, and 28 consecutive days of administration as one treatment cycle.\nEfficacy evaluation criteria: disease state was determined using the RECIST 1.1 criteria."}, "[2]": {"tested_on": "dedifferentiated liposarcoma", "experiment": "Clinical trial in dedifferentiated liposarcoma: safety (NCI-CTC AE 5.0)", "assay_type": "in vivo, human", "conditions": "patients, 28-day cycle", "source_text": "as §1, §2, §3, §4\nSafety evaluation criteria: the severity of adverse events was determined using the NCI-CTC AE 5.0 criteria. Adverse event record forms including time of occurrence, severity, relevance to the studied treatment, duration, measures taken, and the final state of the subject should be faithfully filled out during the trial."}, "[3]": {"conditions": "capsules 180 mg oral once daily"}}}
{"smiles": "CC(C)c1c2cc(-c3nc(Nc4ccc(N5CCNCC5)cn4)ncc3F)ccc2nn1C", "note": "[compound of formula (I)]", "values": [{"measurement": "PFS, OS, ORR, DCR and DOR of the patients that could be evaluated", "setting": "[1]; 28-day cycle", "value": "all good"}, {"measurement": "12-week PFS rate", "setting": "[1]; 15 subjects who had achieved the evaluation of C3 (12 weeks) efficacy", "value": 60, "unit": "%"}, {"measurement": "patients who achieved 12-week PFS", "setting": "[1]; of the 15 subjects evaluated at C3 (12 weeks)", "value": 9, "unit": "patients"}, {"measurement": "Gastrointestinal reactions (diarrhea, vomiting, and the like), grade", "setting": "[2]; capsules 180 mg oral at fasting once daily, mainly this grade, controlled after symptomatic treatment", "value": "1-2 grade"}, {"measurement": "total incidence rate of TEAEs of grade 3 or above", "setting": "[2]; [3]", "value": 9, "unit": "%"}, {"measurement": "total safety", "setting": "[2]; [3]", "value": "good"}]}
